Several values for one entry are separate records, joined by “and”; a condition that tells them apart may be missing. Equal entries are not always repeated. Toxic doses and inconclusive results are not listed. The calls were made as follows: active = survival T/C of 150% or more; inactive = T/C below 125% in these data.
Tested on: CD2F1 mice, L1210 leukemia ip, survival T/C
Assay: NCI In Vivo Anticancer Drug Screen. Data for tumor model L1210 Leukemia (intraperitoneal) in CD2F1 (CDF1) mice
Settings: higher = longer survival
How it was run: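 Each value reflects a quotient of treated over vehicle control outcomes in mice with a transplanted tumor.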

Measured: T/C

Nc1ncnc2c1ccn2C1OC(CO)C(O)C1O (centres undefined)
inactive: endpoint: mean survival time, dose: 0.13 mg/kg/injection, schedule: Q01DX009 (ip), vehicle: saline 104 % of control and 106 % of control | endpoint: mean survival time, dose: 0.16 mg/kg/injection, schedule: Q01DX010 (ip), vehicle: saline 98 % of control and 108 % of control | endpoint: mean survival time, dose: 0.25 mg/kg/injection, schedule: Q01DX009 (ip), vehicle: saline 104 % of control and 110 % of control | endpoint: mean survival time, dose: 0.32 mg/kg/injection, schedule: Q01DX010 (ip), vehicle: saline 104 % of control and 111 % of control | endpoint: mean survival time, dose: 0.5 mg/kg/injection, schedule: Q01DX009 (ip), vehicle: saline 103 % of control and 104 % of control | endpoint: mean survival time, dose: 0.5 mg/kg/injection, schedule: Q03HX008 (ip), vehicle: carboxymethylcellulose (CMC) 102 % of control | endpoint: mean survival time, dose: 0.5 mg/kg/injection, schedule: Q06HX004 (ip), vehicle: carboxymethylcellulose (CMC) 101 % of control | endpoint: mean survival time, dose: 0.63 mg/kg/injection, schedule: Q01DX009 (ip), vehicle: saline 114 % of control | endpoint: mean survival time, dose: 0.63 mg/kg/injection, schedule: Q01DX010 (ip), vehicle: saline 98 % of control and 107 % of control | endpoint: mean survival time, dose: 1.0 mg/kg/injection, schedule: Q01DX001 (ip), vehicle: carboxymethylcellulose (CMC) 109 % of control | endpoint: mean survival time, dose: 1.0 mg/kg/injection, schedule: Q01DX009 (ip), vehicle: saline 99 % of control and 107 % of control | endpoint: mean survival time, dose: 1.0 mg/kg/injection, schedule: Q03HX008 (ip), vehicle: carboxymethylcellulose (CMC) 104 % of control | endpoint: mean survival time, dose: 1.0 mg/kg/injection, schedule: Q06HX004 (ip), vehicle: carboxymethylcellulose (CMC) 104 % of control | endpoint: mean survival time, dose: 1.0 mg/kg/injection, schedule: Q#A X002 (ip), vehicle: carboxymethylcellulose (CMC) 108 % of control | endpoint: mean survival time, dose: 1.25 mg/kg/injection, schedule: Q01DX009 (ip), vehicle: saline 118 % of control | endpoint: mean survival time, dose: 1.25 mg/kg/injection, schedule: Q01DX010 (ip), vehicle: saline 118 % of control and 119 % of control | endpoint: mean survival time, dose: 2.0 mg/kg/injection, schedule: Q03HX008 (ip), vehicle: carboxymethylcellulose (CMC) 117 % of control | endpoint: mean survival time, dose: 2.0 mg/kg/injection, schedule: Q06HX004 (ip), vehicle: carboxymethylcellulose (CMC) 107 % of control | endpoint: mean survival time, dose: 2.0 mg/kg/injection, schedule: Q#A X002 (ip), vehicle: carboxymethylcellulose (CMC) 110 % of control | endpoint: mean survival time, dose: 2.5 mg/kg/injection, schedule: Q01DX009 (ip), vehicle: saline 116 % of control | endpoint: mean survival time, dose: 4.0 mg/kg/injection, schedule: Q01DX001 (ip), vehicle: carboxymethylcellulose (CMC) 120 % of control | endpoint: mean survival time, dose: 4.0 mg/kg/injection, schedule: Q03HX008 (ip), vehicle: carboxymethylcellulose (CMC) 108 % of control | endpoint: mean survival time, dose: 4.0 mg/kg/injection, schedule: Q06HX004 (ip), vehicle: carboxymethylcellulose (CMC) 114 % of control | endpoint: mean survival time, dose: 8.0 mg/kg/injection, schedule: Q01DX001 (ip), vehicle: carboxymethylcellulose (CMC) 124 % of control | endpoint: mean survival time, dose: 8.0 mg/kg/injection, schedule: Q03HX008 (ip), vehicle: carboxymethylcellulose (CMC) 118 % of control | endpoint: mean survival time, dose: 8.0 mg/kg/injection, schedule: Q06HX004 (ip), vehicle: carboxymethylcellulose (CMC) 116 % of control | endpoint: mean survival time, dose: 8.0 mg/kg/injection, schedule: Q#A X002 (ip), vehicle: carboxymethylcellulose (CMC) 122 % of control | endpoint: median survival time, dose: 0.06 mg/kg/injection, schedule: Q03HX024 (ip), vehicle: other 107 % of control | endpoint: median survival time, dose: 0.13 mg/kg/injection, schedule: Q03HX008 (ip), vehicle: other 102 % of control | endpoint: median survival time, dose: 0.13 mg/kg/injection, schedule: Q03HX016 (ip), vehicle: other 96 % of control | endpoint: median survival time, dose: 0.13 mg/kg/injection, schedule: Q03HX024 (ip), vehicle: other 100 % of control | endpoint: median survival time, dose: 0.25 mg/kg/injection, schedule: Q01DX009 (ip), vehicle: other 94 % of control | endpoint: median survival time, dose: 0.25 mg/kg/injection, schedule: Q01DX009 (sc), vehicle: other 93 % of control | endpoint: median survival time, dose: 0.25 mg/kg/injection, schedule: Q03HX008 (ip), vehicle: other 96 % of control | endpoint: median survival time, dose: 0.25 mg/kg/injection, schedule: Q03HX016 (ip), vehicle: other 94 % of control | endpoint: median survival time, dose: 0.25 mg/kg/injection, schedule: Q03HX024 (ip), vehicle: other 101 % of control | endpoint: median survival time, dose: 0.5 mg/kg/injection, schedule: Q01DX009 (ip), vehicle: other 88 % of control | endpoint: median survival time, dose: 0.5 mg/kg/injection, schedule: Q01DX009 (oral), vehicle: other 99 % of control | endpoint: median survival time, dose: 0.5 mg/kg/injection, schedule: Q01DX009 (sc), vehicle: other 98 % of control | endpoint: median survival time, dose: 0.5 mg/kg/injection, schedule: Q03HX008 (ip), vehicle: other 100 % of control | endpoint: median survival time, dose: 0.5 mg/kg/injection, schedule: Q03HX016 (ip), vehicle: other 101 % of control | endpoint: median survival time, dose: 0.5 mg/kg/injection, schedule: Q03HX024 (ip), vehicle: other 96 % of control | endpoint: median survival time, dose: 0.5 mg/kg/injection, schedule: Q04DX003 (ip), vehicle: other 98 % of control | endpoint: median survival time, dose: 1.0 mg/kg/injection, schedule: Q01DX001 (ip), vehicle: other 102 % of control | endpoint: median survival time, dose: 1.0 mg/kg/injection, schedule: Q01DX001 (sc), vehicle: other 104 % of control | endpoint: median survival time, dose: 1.0 mg/kg/injection, schedule: Q01DX009 (ip), vehicle: other 92 % of control | endpoint: median survival time, dose: 1.0 mg/kg/injection, schedule: Q01DX009 (oral), vehicle: other 99 % of control | endpoint: median survival time, dose: 1.0 mg/kg/injection, schedule: Q01DX009 (sc), vehicle: other 98 % of control | endpoint: median survival time, dose: 1.0 mg/kg/injection, schedule: Q03HX008 (ip), vehicle: other 99 % of control | endpoint: median survival time, dose: 1.0 mg/kg/injection, schedule: Q03HX016 (ip), vehicle: other 93 % of control | endpoint: median survival time, dose: 1.0 mg/kg/injection, schedule: Q04DX003 (ip), vehicle: other 99 % of control | endpoint: median survival time, dose: 1.0 mg/kg/injection, schedule: Q08DX002 (ip), vehicle: other 108 % of control | endpoint: median survival time, dose: 2.0 mg/kg/injection, schedule: Q01DX001 (ip), vehicle: other 111 % of control | endpoint: median survival time, dose: 2.0 mg/kg/injection, schedule: Q01DX001 (oral), vehicle: other 99 % of control | endpoint: median survival time, dose: 2.0 mg/kg/injection, schedule: Q01DX001 (sc), vehicle: other 103 % of control | endpoint: median survival time, dose: 2.0 mg/kg/injection, schedule: Q01DX009 (oral), vehicle: other 100 % of control | endpoint: median survival time, dose: 2.0 mg/kg/injection, schedule: Q01DX009 (sc), vehicle: other 91 % of control | endpoint: median survival time, dose: 2.0 mg/kg/injection, schedule: Q04DX003 (ip), vehicle: other 111 % of control | endpoint: median survival time, dose: 2.0 mg/kg/injection, schedule: Q08DX002 (ip), vehicle: other 104 % of control | endpoint: median survival time, dose: 4.0 mg/kg/injection, schedule: Q01DX001 (ip), vehicle: other 113 % of control | endpoint: median survival time, dose: 4.0 mg/kg/injection, schedule: Q01DX001 (oral), vehicle: other 96 % of control | endpoint: median survival time, dose: 4.0 mg/kg/injection, schedule: Q01DX001 (sc), vehicle: other 99 % of control | endpoint: median survival time, dose: 4.0 mg/kg/injection, schedule: Q01DX009 (oral), vehicle: other 101 % of control | endpoint: median survival time, dose: 4.0 mg/kg/injection, schedule: Q01DX009 (sc), vehicle: other 93 % of control | endpoint: median survival time, dose: 4.0 mg/kg/injection, schedule: Q04DX003 (ip), vehicle: other 106 % of control | endpoint: median survival time, dose: 4.0 mg/kg/injection, schedule: Q08DX002 (ip), vehicle: other 114 % of control | endpoint: median survival time, dose: 8.0 mg/kg/injection, schedule: Q01DX001 (ip), vehicle: other 110 % of control | endpoint: median survival time, dose: 8.0 mg/kg/injection, schedule: Q01DX001 (oral), vehicle: other 101 % of control | endpoint: median survival time, dose: 8.0 mg/kg/injection, schedule: Q01DX001 (sc), vehicle: other 100 % of control | endpoint: median survival time, dose: 8.0 mg/kg/injection, schedule: Q01DX009 (oral), vehicle: other 103 % of control | endpoint: median survival time, dose: 8.0 mg/kg/injection, schedule: Q04DX003 (ip), vehicle: other 90 % of control | endpoint: median survival time, dose: 8.0 mg/kg/injection, schedule: Q08DX002 (ip), vehicle: other 108 % of control | endpoint: median survival time, dose: 16.0 mg/kg/injection, schedule: Q01DX001 (oral), vehicle: other 100 % of control | endpoint: median survival time, dose: 32.0 mg/kg/injection, schedule: Q01DX001 (oral), vehicle: other 86 % of control

Source: PubChem BioAssay AID256 (DTP/NCI, 2004)
